Measured values: patent US20230272016A1, “PEPTIDES FOR IMMUNOTHERAPY” (Second Genome, Inc., priority 2020, published 2023)

Tests used:
[1] = tested on: immature monocyte-derived dendritic cells (moDCs) and allogeneic T cells; assay: moDC / allogeneic T cell co-culture cytokine secretion; format: cell-based, human; conditions: after anti-CD40 pre-stimulation, peptide alone or in combination with anti PD1; 72 hours; >4 donor PBMCs
Protocol: In another study, immature monocyte-derived dendritic cells (moDCs) were pre-stimulated with anti-CD40 agonist antibody or the mouse IgG1 isotype control antibody. Twenty-four hours later, T cells isolated from allogeneic donors were added to the moDCs with the peptide of interest, SG-3-00802 or SG-3-05021, alone or in combination with […] monoclonal antibody. The co-culture of cells was incubated for 72 hours, after which cell supernatants were harvested and analyzed for secretion of cytokines, IFN-g and TNF-α. Both SG-3-00802 and SG-3-05021 induced an increase in IFN-γ and TNF-α after stimulation with anti-CD40 either alone or in combination with anti PD1 (FIGS. 26A-26B and 27A-27B). Data shown for experiment conducted in >4 Donor PBMCs.

[2] = molecular target: T1, CXCR4 (Homo sapiens, UniProt P61073); assay: SelectScreen chemokine receptor U2OS agonist/antagonist assay; format: cell-based; conditions: CXCR4 expressing U2OS cells
T1 construct: expressed in transfected cells
Protocol: Peptides SG-3-00802 and SG-3-05021 were screened for agonist and antagonist activity of the chemokine receptors CCR7, CXCR3, and CXCR4.
In agonist assays, chemokine receptor expressing U2OS cells are thawed and resuspended in Assay Media (DMEM, 1% dialyzed FBS, 25 mM HEPES pH 7.3, 0.1 mM NEAA, 100 U/mL/100 μg/mL Pen/Strep) to a concentration of 312,500 cells/mL. 4 μL of a 10×serial dilution of I-TAC (control agonist starting concentration, 500 nM) or compounds are added to appropriate wells of a 384-well TC-Treated assay plate. 32 μL of cell suspension (10,000 cells) is added to each well. 4 μL of Assay Media is added to all wells to bring the final assay volume to 40 μL. The plate is incubated for 16-24 hours at 37° C./5% CO2 in a humidified incubator. 8 μL of 1 μM Substrate+Solution D Loading Solution is added to each well and the plate is incubated for 2 hours at room temperature. The plate is read on a fluorescence plate reader.
In antagonist assays, CXCR3-bla U2OS cells were thawed and prepared as described above for the Agonist assay. 4 μL of 10×compounds or assay media was added to appropriate wells of a TC-Treated assay plate. 32 μL of cell suspension was added to the wells and pre-incubated at 37° C./5% CO2 in a humidified incubator with compounds and control antagonist titration for 30 minutes. 4 μL of 10×control agonist I-TAC at the pre-determined EC80 concentration is added to wells containing the control antagonist or compounds. The plate is incubated for 16-24 hours at 37° C./5% CO2 in a humidified incubator. 8 μL of 1 μM Substrate+Solution D Loading Solution is added to each well and the plate is incubated for 2 hours at room temperature. The plate is read on a fluorescence plate reader.

[3] = tested on: CXCL10 production; assay: Three point dose response cytokine screen of microbiome peptides; format: cell-based; conditions: three point dose response curve
Protocol: Studies were performed to identify target peptides that induced CXCL10 production. Target peptides identified from human microbiomes isolated from humans that responded to anti-PD-1 therapy were each tested in a three point dose response curve with TNF-α, CXCL10, IL6, and INF-γ. […] Peptide sequences and characteristics can be found in Tables 13-15.

[4] = tested on: RENCA tumors; assay: RENCA murine adenocarcinoma syngeneic tumor model; format: in vivo, BALB/c mice; conditions: for survival time (days) / tumor volume: peptide 2.5 mg/kg daily peritumorally; for survival time (days): anti-PD-1 10 mg/kg i.p., compared to PBS or anti-PD-1 alone; for tumor volume: anti-PD-1 10 mg/kg intraperitoneal, compared to PBS treated control mice
Protocol: To determine anti-tumor activity of SG-3-00802 in vivo, the RENCA murine adenocarcinoma model was used. It is a syngeneic, standardized experimental model of metastatic RCC. Briefly, BALB/c female mice were inoculated subcutaneously with RENCA cells. Established tumors were treated daily with 2.5 mg/kg SG-3-00802 peritumorally, alone or in combination with intraperitoneal administration of 10 mg/kg anti-PD-1 antibody. […] QD indicates administration of the peptide once a day. BID indicates administration of the peptide twice a day.
Balb/c female mice were implanted with RENCA cells in the left flank. When tumors were established and reach ˜100 mm^3 or 200 mm^3 mice were allocated into dosing groups. Each dosing group had 10-12 animals. Peptides were dosed peritumoral at 2.5 mg/kg BID for 7 d and anti-PD-1 was dosed intraperitoneally at 10 mg/kg TIW for a total of 3 doses. Mice were monitored for tumor growth and survival. Tumor volumes were measured twice a week. A survival event (censoring) was reached when tumor volume reached 1000 mm^3 and additional survival events were defined as animals that had to be euthanized due to ulceration.
Additional studies were performed to test survival and tumor volume responses to a re-challenge event. In one study, mice were allocated into dosing groups when tumors reached ˜100 mm^3. During the initial dosing study, time 0 was the first day of seven days of dosing. […] Re-implantation was completed on day 39 after dosing completion. Treated mice were tumor free for >20 days before being re-challenge. […] Tumor volume and survival was been monitored as previously described. In the re-challenge experiment, time 0 is day 10 after re-challenge dosing.
In the initial dosing experiment, tumor volumes were smaller in both the SG-3-00802 alone treatment and SG-3-00802 with anti-PD-1 antibody combinatorial treatment 40 days after dosing started (FIGS. 32A-32B).
In another re-challenge study, mice were instead allocated into dosing groups when tumors reached ˜200 mm^3. The same procedure as described above was used, except where indicated. […] Re-implantation was completed on day 37 after dosing completion, and time 0 is day 12 post re-challenge. […] In the initial dosing experiment, tumor volumes were smaller in both the SG-3-00802 alone treatment and SG-3-00802 with anti-PD-1 antibody combinatorial treatment 15 days after dosing started (FIGS. 35A-35B).
To determine anti-tumor activity of SG-3-00802 in vivo, the RENCA murine adenocarcinoma model was used. Briefly, BALB/c female mice were inoculated subcutaneously with RENCA cells. Established tumors were treated daily with 2.5 mg/kg SG-3-00802 peritumorally, alone or in combination with intraperitoneal administration of 10 mg/kg anti-PD-1 antibody. […]

T1 sequence (P61073 whole entry): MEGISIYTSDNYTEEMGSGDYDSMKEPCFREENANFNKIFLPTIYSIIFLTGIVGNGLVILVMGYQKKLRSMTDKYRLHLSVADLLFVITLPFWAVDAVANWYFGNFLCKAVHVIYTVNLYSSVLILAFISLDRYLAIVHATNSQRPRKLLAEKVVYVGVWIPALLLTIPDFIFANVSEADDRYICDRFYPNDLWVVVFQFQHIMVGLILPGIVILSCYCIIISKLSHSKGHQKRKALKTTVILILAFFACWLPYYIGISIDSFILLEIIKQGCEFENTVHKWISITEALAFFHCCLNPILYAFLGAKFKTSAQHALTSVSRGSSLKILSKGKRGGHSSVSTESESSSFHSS

Sequence | IFN-γ secretion [1] | TNF-α secretion [1] | SelectScreen Agonist Mode [2] | SelectScreen Antagonist Mode [2] | CXCL10 induction [3] | volume of syngeneic RENCA tumors, dose dependence ([4]; QD or BID administration of the peptide) | # of animals with complete tumor regression out of total animals per group (primary study) ([4]; Table 16, ~100 mm^3 study) | # of animals without tumor progression out of re-challenged animals per group (re-challenge study) ([4]; Table 16, ~100 mm^3 study) | # of animals with complete tumor regression out of total animals per group (primary study) ([4]; Table 17, ~200 mm^3 study) | survival, initial dosing ([4]; dosing groups allocated at tumors ~100 mm^3) | survival, initial dosing ([4]; dosing groups allocated at tumors ~200 mm^3) | survival time (days) [4] | tumor volume [4] | tumor volumes, initial dosing experiment ([4]; ~100 mm^3 study, 40 days after dosing started) | percent of mice surviving after re-challenge ([4]; ~100 mm^3 study, re-implantation on day 39 after dosing completion, opposite flank) | tumor volumes after re-challenge ([4]; ~100 mm^3 study, vs PBS-treated control mice) | tumor volumes, initial dosing experiment ([4]; ~200 mm^3 study, 15 days after dosing started)
MKVRPSVKPMCEKCKIIRRKGRVMVICENPKHKQRQG [SG-3-00802, peptide from oscillibacter.sp t_155102] | increase | increase | no agonistic activity and No | moderate antagonistic activity and no antagonistic activity and Yes | high CXCL10 induction | dose-dependent manner | 2/12 | 2/2 | 0/10 | increased survival | increased survival | survived a longer time | robust decrease | smaller | increased percent of mice surviving | remained smaller than PBS-treated control mice | smaller
LGKTDWIEKYFKVKKEKIDKMQRFLQG [SG-3-05021, peptide from bacteroides.clarus.dsm.22519] | increase | increase | no agonistic activity and No |  | high CXCL10 induction |  |  |  |  |  |  | survived a longer time | decrease in tumor volume |  |  |  | 
